Assay results published in patent publication US20260132132A1, “3A,4,5,6-TETRAHYDRO-1 H-PYRAZOLO[3,4-C]PYRIDIN-7(7AH)-ONE DERIVATIVES AS FACTOR XIIA INHIBITORS” (KALVISTA PHARMACEUTICALS LIMITED, priority 2022, published 2026).

biological target: T1, Human Factor XIIa (hFXIIa) (Homo sapiens, UniProt P00748); assay: Determination of Human Factor XIIa (hFXIIa) inhibition, fluorogenic substrate IC50 assay; type: biochemical; settings: fluorogenic substrate H-DPro-Phe-Arg-AFC at Km, 25° C., read-out: Human FXIIa IC50
T1 construct: purchased Enzyme Research Laboratories
T1 sequence (P00748 373-615 limits assumed): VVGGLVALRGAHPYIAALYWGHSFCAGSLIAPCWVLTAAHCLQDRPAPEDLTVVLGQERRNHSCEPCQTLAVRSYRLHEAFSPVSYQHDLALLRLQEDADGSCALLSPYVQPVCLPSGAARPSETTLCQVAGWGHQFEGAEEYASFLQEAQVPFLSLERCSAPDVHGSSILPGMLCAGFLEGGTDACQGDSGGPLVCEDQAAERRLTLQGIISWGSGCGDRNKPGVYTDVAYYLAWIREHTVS
T1 sequence (P00748 20-372 partner limits assumed): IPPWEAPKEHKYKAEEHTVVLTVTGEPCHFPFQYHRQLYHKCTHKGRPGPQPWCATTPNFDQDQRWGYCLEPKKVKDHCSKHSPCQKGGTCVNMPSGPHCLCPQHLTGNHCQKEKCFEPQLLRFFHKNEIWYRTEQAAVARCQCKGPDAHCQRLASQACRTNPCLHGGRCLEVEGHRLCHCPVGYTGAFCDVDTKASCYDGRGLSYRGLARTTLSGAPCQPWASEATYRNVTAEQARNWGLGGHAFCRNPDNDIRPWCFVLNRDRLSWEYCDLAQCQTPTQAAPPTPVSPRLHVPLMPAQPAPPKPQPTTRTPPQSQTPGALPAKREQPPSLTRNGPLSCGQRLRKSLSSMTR
Method: Determination of Human Factor XIIa (hFXIIa) inhibition
The Km for the cleavage of the substrate by hFXIIa was determined by standard transformation of the Michaelis-Menten equation, with subsequent inhibition assays performed at substrate Km concentration.

Compound	IC50
CN1CCc2ccc(N3CCc4c(C(=O)NC[C@H]5COCCO5)nn(-c5cccc(Cl)c5)c4C3=O)cc2C1=O [Example 1246, (S)-N-((1,4-dioxan-2-yl)methyl)-1-(3-chlorophenyl)-6-(2-methyl-1-oxo-1,2,3,4-tetrahydroisoquinolin-7-yl)-7-oxo-4,5,6,7-tetrahydro-1H-pyrazolo[3,4-c]pyridine-3-carboxamide]	300 to 1000 nM
CN1CCc2ccc(N3CCc4c(C(=O)NC[C@@H]5COCCO5)nn(-c5cccc(Cl)c5)c4C3=O)cc2C1=O [Example 1249, (R)-N-((1,4-dioxan-2-yl)methyl)-1-(3-chlorophenyl)-6-(2-methyl-1-oxo-1,2,3,4-tetrahydroisoquinolin-7-yl)-7-oxo-4,5,6,7-tetrahydro-1H-pyrazolo[3,4-c]pyridine-3-carboxamide]	300 to 1000 nM
CN1CCc2ccc(N3CCc4c(C(=O)NC5COCC5CO)nn(-c5cccc(Cl)c5)c4C3=O)cc2C1=O (stereo not shown) [Example 1251, 1-(3-chlorophenyl)-N-(4-(hydroxymethyl)tetrahydrofuran-3-yl)-6-(2-methyl-1-oxo-1,2,3,4-tetrahydroisoquinolin-7-yl)-7-oxo-4,5,6,7-tetrahydro-1H-pyrazolo[3,4-c]pyridine-3-carboxamide]	300 to 1000 nM
Cc1cc(CNC(=O)c2nn(-c3cccc(Cl)c3)c3c2CCN(c2ccc4c(c2)C(=O)N(CCO)CC4)C3=O)n[nH]1 [Example 1255, 1-(3-chlorophenyl)-6-(2-(2-hydroxyethyl)-1-oxo-1,2,3,4-tetrahydroisoquinolin-7-yl)-N-((5-methyl-1H-pyrazol-3-yl)methyl)-7-oxo-4,5,6,7-tetrahydro-1H-pyrazolo[3,4-c]pyridine-3-carboxamide]	100 to 300 nM
O=C(NCc1cc(C2CC2)[nH]n1)c1nn(-c2cccc(Cl)c2)c2c1CCN(c1ccc3c(c1)C(=O)N(CCO)CC3)C2=O [Example 1259, 1-(3-chlorophenyl)-N-((5-cyclopropyl-1H-pyrazol-3-yl)methyl)-6-(2-(2-hydroxyethyl)-1-oxo-1,2,3,4-tetrahydroisoquinolin-7-yl)-7-oxo-4,5,6,7-tetrahydro-1H-pyrazolo[3,4-c]pyridine-3-carboxamide]	100 to 300 nM
O=C(NCC1CC1)c1nn(-c2cccc(Cl)c2)c2c1CCN(c1cccc(C(=O)N3CCCC3)c1)C2=O [Example 1263, 1-(3-chlorophenyl)-N-(cyclopropylmethyl)-7-oxo-6-(3-(pyrrolidine-1-carbonyl)phenyl)-4,5,6,7-tetrahydro-1H-pyrazolo[3,4-c]pyridine-3-carboxamide]	10000 to 40000 nM
Cc1n[nH]c(C)c1CNC(=O)c1nn(-c2cccc(Cl)c2)c2c1CCN(c1ccc3c(c1)C(=O)N(C)CC3)C2=O [Example 1268, 1-(3-chlorophenyl)-N-((3,5-dimethyl-1H-pyrazol-4-yl)methyl)-6-(2-methyl-1-oxo-1,2,3,4-tetrahydroisoquinolin-7-yl)-7-oxo-4,5,6,7-tetrahydro-1H-pyrazolo[3,4-c]pyridine-3-carboxamide]	300 to 1000 nM
CC(=O)N(C)c1cccc(N2CCc3c(C(=O)NCC4CC4)nn(-c4cccc(Cl)c4)c3C2=O)c1 [Example 1269, 1-(3-chlorophenyl)-N-(cyclopropylmethyl)-6-(3-(N-methylacetamido)phenyl)-7-oxo-4,5,6,7-tetrahydro-1H-pyrazolo[3,4-c]pyridine-3-carboxamide]	10000 to 40000 nM
CN(C(=O)c1cccc(N2CCc3c(C(=O)NCC4CC4)nn(-c4cccc(Cl)c4)c3C2=O)c1)C1CC1 [Example 1270, 1-(3-chlorophenyl)-6-(3-(cyclopropyl(methyl)carbamoyl)phenyl)-N-(cyclopropylmethyl)-7-oxo-4,5,6,7-tetrahydro-1H-pyrazolo[3,4-c]pyridine-3-carboxamide]	10000 to 40000 nM
CN1CCc2ccc(N3CCc4c(C(=O)N5CCOCC5)nn(-c5cccc(Cl)c5)c4C3=O)cc2C1=O [Example 1272, 7-(1-(3-chlorophenyl)-3-(morpholine-4-carbonyl)-7-oxo-1,4,5,7-tetrahydro-6H-pyrazolo[3,4-c]pyridin-6-yl)-2-methyl-3,4-dihydroisoquinolin-1(2H)-one]	3000 to 10000 nM
